Measured values taken from PubChem BioAssay AID328 (DTP/NCI, 2004).
Toxic doses and inconclusive results are not listed. How the source made its calls: active means survival T/C of 150% or more; inactive means T/C below 125% in these data. Non-standard residues stand in square brackets, D forms with d. Residues, ends and D or L forms follow the SMILES beside them. ξ: configuration not given here. ξF = NC(Cc1ccccc1)C(=O)O

System: BDF1 mice, P388 leukemia ip, median survival T/C
Test: NCI In Vivo Anticancer Drug Screen. Data for tumor model P388 Leukemia (intraperitoneal) in B6D2F1 (BDF1) mice
Settings: endpoint: median survival time, higher = longer survival
Procedure, shortened: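 In tumour-bearing mice, survival after compound treatment is set against the vehicle group and given as a quotient.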

[1] = dose: 6.25 mg/kg/injection, schedule: Q01DX009 (ip), vehicle: saline with Tween-80
[2] = dose: 12.5 mg/kg/injection, schedule: Q01DX009 (ip), vehicle: saline with Tween-80
[3] = dose: 50.0 mg/kg/injection, schedule: Q01DX005 (ip), vehicle: saline with Tween-80
[4] = dose: 50.0 mg/kg/injection, schedule: Q01DX009 (ip), vehicle: saline with Tween-80
[5] = dose: 100.0 mg/kg/injection, schedule: Q01DX001 (ip), vehicle: saline with Tween-80
[6] = dose: 200.0 mg/kg/injection, schedule: Q01DX001 (ip), vehicle: saline with Tween-80
[7] = dose: 100.0 mg/kg/injection, schedule: Q01DX009 (ip), vehicle: saline with Tween-80
[8] = dose: 100.0 mg/kg/injection, schedule: Q04DX003 (ip), vehicle: saline with Tween-80
[9] = dose: 200.0 mg/kg/injection, schedule: Q01DX009 (ip), vehicle: saline with Tween-80
[10] = dose: 200.0 mg/kg/injection, schedule: Q04DX003 (ip), vehicle: saline with Tween-80
[11] = dose: 400.0 mg/kg/injection, schedule: Q04DX003 (ip), vehicle: saline with Tween-80
[12] = dose: 100.0 mg/kg/injection, schedule: Q01DX009 (ip), vehicle: Klucel (hydroxypropylcellulose) (HPC)
[13] = dose: 100.0 mg/kg/injection, schedule: Q04DX003 (ip), vehicle: Klucel (hydroxypropylcellulose) (HPC)
[14] = dose: 200.0 mg/kg/injection, schedule: Q01DX009 (ip), vehicle: Klucel (hydroxypropylcellulose) (HPC)
[15] = dose: 200.0 mg/kg/injection, schedule: Q04DX003 (ip), vehicle: Klucel (hydroxypropylcellulose) (HPC)
[16] = dose: 400.0 mg/kg/injection, schedule: Q01DX009 (ip), vehicle: Klucel (hydroxypropylcellulose) (HPC)
[17] = dose: 400.0 mg/kg/injection, schedule: Q04DX003 (ip), vehicle: Klucel (hydroxypropylcellulose) (HPC)
[18] = dose: 200.0 mg/kg/injection, schedule: Q01DX005 (ip), vehicle: saline with Tween-80
[19] = dose: 50.0 mg/kg/injection, schedule: Q01DX009 (ip), vehicle: saline
[20] = dose: 100.0 mg/kg/injection, schedule: Q01DX009 (ip), vehicle: saline

Measured: T/C

COc1cc(C=C2C(=O)C=CC2=O)ccc1O
inactive: dose: 0.78 mg/kg/injection, schedule: Q01DX009 (ip), vehicle: saline with Tween-80 116 % of control | dose: 1.56 mg/kg/injection, schedule: Q01DX009 (ip), vehicle: saline with Tween-80 104 % of control | dose: 3.13 mg/kg/injection, schedule: Q01DX009 (ip), vehicle: saline with Tween-80 112 % of control | [1] 110 % of control | [2] 95 % of control

CCOC(=O)CCN(CCN(C)C)c1cc(O)c2c(c1O)C(=O)c1ccccc1C2=O
inactive: [3] 123 % of control

NC1=CC(=O)c2ccccc2C1=O
inactive: [1] 101 % of control | [2] 113 % of control | dose: 25.0 mg/kg/injection, schedule: Q01DX009 (ip), vehicle: saline with Tween-80 103 % of control | [4] 103 % of control

O=S(=O)(Nc1cc(Cl)c(NS(=O)(=O)c2ccccc2)cc1Cl)c1ccccc1
inactive: [5] 95 % of control | [6] 90 % of control | dose: 400.0 mg/kg/injection, schedule: Q01DX001 (ip), vehicle: saline with Tween-80 86 % of control

CC(=O)N/N=C(/C)C(O)(c1ccccc1)c1ccccc1
inactive: [7] 99 % of control | [8] 103 % of control | [9] 100 % of control | [10] 99 % of control | dose: 400.0 mg/kg/injection, schedule: Q01DX009 (ip), vehicle: saline with Tween-80 99 % of control | [11] 87 % of control

CCc1ccc(OS(=O)(=O)c2ccc([N+](=O)[O-])cc2)cc1
inactive: dose: 75.0 mg/kg/injection, schedule: Q01DX001 (ip), vehicle: saline with Tween-80 104 % of control | dose: 150.0 mg/kg/injection, schedule: Q01DX001 (ip), vehicle: saline with Tween-80 100 % of control | dose: 300.0 mg/kg/injection, schedule: Q01DX001 (ip), vehicle: saline with Tween-80 100 % of control

CCSc1nc(=S)cc(C)[nH]1
inactive: [12] 105 % of control | [13] 95 % of control | [14] 100 % of control | [15] 95 % of control | [16] 105 % of control | [17] 104 % of control

CCC12CCCN3C(=O)CC(C(=O)CC1)C32 (stereo not drawn)
inactive: dose: 25.0 mg/kg/injection, schedule: Q04DX003 (ip), vehicle: saline sonified 95 % of control | dose: 50.0 mg/kg/injection, schedule: Q04DX003 (ip), vehicle: saline sonified 109 % of control | dose: 100.0 mg/kg/injection, schedule: Q04DX003 (ip), vehicle: saline sonified 109 % of control

CCC(C)C(=O)OC1C(=O)OC2CC3C(C)=CC(=O)C(O)C3(C)C3C4(O)OCC23C1C(C)C4O (stereo not drawn)
inactive: dose: 0.06 mg/kg/injection, schedule: Q01DX009 (ip), vehicle: saline with Tween-80 117 % of control | dose: 0.25 mg/kg/injection, schedule: Q01DX009 (ip), vehicle: saline 121 % of control | dose: 1.0 mg/kg/injection, schedule: Q01DX009 (ip), vehicle: saline 111 % of control | dose: 2.0 mg/kg/injection, schedule: Q01DX009 (ip), vehicle: saline 124 % of control | dose: 8.0 mg/kg/injection, schedule: Q01DX009 (ip), vehicle: saline with Tween-80 95 % of control

COC(=O)C(CCCCNC(=O)OCc1ccccc1)NC(=O)C(CCCCNC(=O)OCc1ccccc1)NC(=O)OC(C)(C)C (stereo not drawn)
inactive: [18] 90 % of control

COC(=O)C12OCC34C(CC5=C(C)C(=O)C(O)=CC5(C)C3C(O)C1O)OC(=O)C(OC(=O)c1ccccc1)C24 (stereo not drawn)
inactive: dose: 0.04 mg/kg/injection, schedule: Q01DX009 (ip), vehicle: saline + alcohol 111 % of control | dose: 4.0 mg/kg/injection, schedule: Q01DX009 (ip), vehicle: saline + alcohol 100 % of control

CCCCOCN(COCCCC)c1ccc(C)cc1
inactive: [4] 100 % of control | [7] 112 % of control

NC(Cc1ccccc1)C(=O)NCC(=O)NCC(=O)O (stereo not drawn) (H-[ξF]-Gly-Gly-OH)
inactive: [8] 95 % of control | [10] 104 % of control | [11] 109 % of control

Cc1cc2c(C(C)C)c(O)c(O)c(C=O)c2c(O)c1-c1c(C)cc2c(C(C)C)c(O)c(O)c(C=O)c2c1O
inactive: dose: 1.25 mg/kg/injection, schedule: Q01DX009 (ip), vehicle: saline with Tween-80 124 % of control | dose: 2.5 mg/kg/injection, schedule: Q01DX009 (ip), vehicle: saline with Tween-80 120 % of control

c1ccc(C2SCCSCCS2)cc1
inactive: [13] 90 % of control | [15] 100 % of control | [17] 100 % of control

CCOC(=O)C(=Cc1ccc(C=C(C(=O)OCC)C(=O)OCC)cc1)C(=O)OCC
inactive: dose: 50.0 mg/kg/injection, schedule: Q01DX009 (ip), vehicle: Klucel (hydroxypropylcellulose) (HPC) 110 % of control | [12] 105 % of control | [13] 91 % of control | [14] 95 % of control | [15] 91 % of control

CCOc1cc(Cl)c(N)c(Cl)c1
inactive: [5] 114 % of control | [6] 98 % of control

CC(C)=C=CCN(C)Cc1ccccc1
inactive: [19] 99 % of control | [20] 103 % of control

CCOC(=O)C(C#N)(CC)C1=CCCCC1 (stereo not drawn)
inactive: [12] 108 % of control | [13] 109 % of control | [14] 100 % of control | [15] 100 % of control | [16] 104 % of control | [17] 122 % of control

CO[C@H]1/C=C/O[C@@]2(C)Oc3c(C)c(O)c4c(O)c(c(/C=N/N5CCNCC5)c(O)c4c3C2=O)NC(=O)/C(C)=C\C=C\[C@H](C)[C@H](O)[C@@H](C)[C@@H](O)[C@@H](C)C(OC(C)=O)[C@@H]1C (stereo partly drawn)
inactive: [19] 114 % of control | [20] 114 % of control | dose: 200.0 mg/kg/injection, schedule: Q01DX009 (ip), vehicle: saline 114 % of control

C=CCOc1ccccc1-c1nnn(C)n1
inactive: [8] 95 % of control | [10] 97 % of control | [11] 104 % of control

CN1CC2([N+](=O)[O-])C=CCC([N+](=O)[O-])(C1)C2 (stereo not drawn)
inactive: dose: 25.0 mg/kg/injection, schedule: Q01DX009 (ip), vehicle: water 90 % of control | dose: 50.0 mg/kg/injection, schedule: Q01DX009 (ip), vehicle: water 115 % of control | dose: 100.0 mg/kg/injection, schedule: Q01DX009 (ip), vehicle: water 108 % of control | dose: 200.0 mg/kg/injection, schedule: Q01DX009 (ip), vehicle: water 99 % of control

CCC(CO)NC(=O)/C=C/c1ccccc1Cl (stereo not drawn)
inactive: [9] 91 % of control

COc1cc2cccccc-2cc1=O
inactive: [13] 110 % of control | [15] 115 % of control | [17] 115 % of control

COc1ccc(C2C(C#N)=C(N)NC(=O)C2C(N)=O)cc1 (stereo not drawn)
inactive: [3] 92 % of control | dose: 100.0 mg/kg/injection, schedule: Q01DX005 (ip), vehicle: saline with Tween-80 89 % of control | [18] 92 % of control

O=C1C=CC(=O)N1CN1CCOCC1
inactive: dose: 3.12 mg/kg/injection, schedule: Q01DX009 (ip), vehicle: saline 120 % of control | dose: 6.25 mg/kg/injection, schedule: Q01DX009 (ip), vehicle: saline 104 % of control | dose: 12.5 mg/kg/injection, schedule: Q01DX009 (ip), vehicle: saline 116 % of control | dose: 18.75 mg/kg/injection, schedule: Q01DX009 (ip), vehicle: saline 111 % of control

CC(=O)OC(C(=O)NCc1ccccc1)C(OC(C)=O)C(C)OS(C)(=O)=O (stereo not drawn)
inactive: [4] 98 % of control | [7] 106 % of control | [9] 89 % of control
